Assay results as given in patent US10968212B2 (ACCUTAR BIOTECHNOLOGY INC., priority 2016, dated 2021).

Columns and labels:
[1] = system: MCF-7 tumors; assay: Tumor growth inhibition in MCF-7 breast cancer-derived mouse xenograft model; type: in vivo; settings: 10 mg/day, i.p., 3 weeks, BALB/c nude mice with MCF-7 tumors; FIG. 14A
Description: For the tumor growth inhibition study, female BALB/c nude mice (with supplemental 17-β estradiol) bearing MCF-7 tumors (mean tumor volume 211 mm^3) were i.p. treated with Accutar-153 (10 mg/day) in vehicle or by vehicle only for 3 weeks. Body weight and tumor volume (tumor volume=[length×width^2]/2) were monitored twice weekly. At the end of study, plasma, tumor tissues and organs (brain, liver, kidney) for each animal were collected for further analysis.
Female BALB/c nude mice (supplemented with 17-β estradiol) bearing MCF-7 tumors (mean tumor volume was 211 mm^3) were treated with the compound:
[drawing 197] (10 mg/day, i.p.) in vehicle, or by vehicle only, for 3 weeks. Body weight and tumor volume (tumor volume=[length×width^2]/2) were monitored twice weekly. At the end of study, plasma, tumor tissues and organs (brain, liver, kidney) for each animal were collected for further analysis. The tumor growth inhibition studies were performed twice.

[2] = target: T1, Estrogen Receptor alpha (Homo sapiens, UniProt P03372); assay: Estrogen Receptor alpha degradation in MCF-7 cells (immunoblot, 20 hours); type: cell-based; settings: concentrations from 1 nM to 1 μM, FIGS. 3A and 3B
T1 construct: endogenous in cells; host or cells: MCF7 or LTED cells
T1 sequence (P03372 1-595): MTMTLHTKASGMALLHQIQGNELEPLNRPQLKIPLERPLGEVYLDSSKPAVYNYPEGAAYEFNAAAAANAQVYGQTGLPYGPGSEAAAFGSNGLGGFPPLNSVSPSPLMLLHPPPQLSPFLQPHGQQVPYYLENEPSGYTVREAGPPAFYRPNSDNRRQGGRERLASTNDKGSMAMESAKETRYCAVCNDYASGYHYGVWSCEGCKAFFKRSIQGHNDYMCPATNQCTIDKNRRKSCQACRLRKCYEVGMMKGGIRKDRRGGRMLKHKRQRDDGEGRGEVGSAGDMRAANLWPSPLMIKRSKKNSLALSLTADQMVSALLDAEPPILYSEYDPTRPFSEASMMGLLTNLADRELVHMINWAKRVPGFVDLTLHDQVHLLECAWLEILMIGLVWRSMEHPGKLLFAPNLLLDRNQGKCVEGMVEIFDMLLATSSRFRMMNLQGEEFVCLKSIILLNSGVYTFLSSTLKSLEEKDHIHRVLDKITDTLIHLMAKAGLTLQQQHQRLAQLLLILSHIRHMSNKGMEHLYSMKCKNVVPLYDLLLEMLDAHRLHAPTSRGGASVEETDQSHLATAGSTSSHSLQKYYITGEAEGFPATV
Description: MCF-7 cells were maintained in high glucose DMEM (Corning cellgro, 15-013-CM), supplemented with 10% FBS, 1× L-Glutamine (29.2 mg/mL) and 1× Penicillin Streptomycin (10,000 I.U./mL Penicillin; 10,000 μg/mL Streptomycin; Corning, 30-009-CI). The resulting MCF-7 cells were plated into a 24-well plate at 1×10^5 cells/well, and the following day, compound was added to the cell medium at various concentrations. After treating the cell medium with compound, the cell plates were incubated for 20 hours at 37° C. Upon cooling, cells were lysed by addition of SDS loading buffer. The resulting cell lysates were subjected to immunoblotting by standard protocol. with primary antibodies of mouse anti-human ERα monoclonal antibody (Santa Cruz Biotechnology Inc., #SC-8002) and 1:1000 goat anti-human actin polyclonal antibody (Santa Cruz Biotechnology Inc. #SC-1616). Western blot results visualized using picoLUCENT™ PLUS-HRP ECL (G Biosciences, 786-165) and LI-CORC digit imaging system.

| SMILES | tumor weight, treatment group versus control group [1] | degradation of Estrogen Receptor alpha compared with the control [2] |
| --- | --- | --- |
| CC/C(=C(\c1ccc(O)cc1)c1ccc(OCCNC(=O)CCCCCCC(=O)N[C@H](C(=O)N2C[C@H](O)C[C@H]2C(=O)NCc2ccc(-c3scnc3C)cc2)C(C)(C)C)cc1)c1ccccc1 | significant decrease in tumor weight |  |
| CC/C(=C(\c1ccccc1)c1ccc(OCCN(C)CCCCCCC(=O)N[C@H](C(=O)N2C[C@H](O)C[C@H]2C(=O)NCc2ccc(-c3scnc3C)cc2)C(C)(C)C)cc1)c1ccccc1 [Compound 4] |  | resulted in degradation of Estrogen Receptor alpha when compared with the control |
